Test [1] in a line: Inhibition of adipogenesis in mouse C3H10T1/2 cells assessed as lipid droplet formation at 20 uM by Oil red O staining relative to control. The format is functional, C3H 10T1/2. Also on record: scale not given: the % may be the effect or the level left.
Another test relates to C3H 10T1/2. Nature of the test: Induction of differentiation in mouse C3H10T1/2 cells assessed as increase […] by measuring ALP activity at 20 uM relative to control. The format is functional.

In the case of `O=[N+]([O-])c1ccc(O[C@@H]2O[C@H](CO)[C@@H](O)[C@H](O)[C@H]2O)cc1`, in test [1], the Activity is 17%. On the same count and under the same terms, then `Cc1cc([N+](=O)[O-])ccc1O[C@@H]1O[C@H](CO)[C@@H](O)[C@H](O)[C@H]1O`, with 17%. For `COC(=O)c1ccc(O[C@@H]2O[C@H](CO)[C@@H](O)[C@H](O)[C@H]2O)cc1`, the Activity in test [1] turned out to be 17%. Regarding `COc1cc([C@@H]2OC[C@@H]3[C@H]2CO[C@H]3c2ccc(O[C@@H]3O[C@H](CO)[C@@H](O)[C@H](O)[C@H]3O)c(OC)c2)ccc1O`, the “fold change (FC)” value in the test on C3H 10T1/2 was 1.3.

For the origin of these results see ChEMBL document CHEMBL4808237, “Ginkgonitroside, a new nitrophenyl glycoside and bioactive compounds from Ginkgo biloba leaves controlling adipocyte and osteoblast differentiation” (2021).
